The source of these data is patent US6407064B2, “Aminoalcohol derivative and medicament comprising the same” (Seikagaku Corporation, priority 1999, dated 2002).

Assay [1] deals with MAPkinase (mitogen-activated protein kinase). The settings on record: Biochem. Biophys. Res. Commun. 237: 595-600 (1997); cited from earlier work.
Assay [2] deals with enzyme for GQ1b synthesis. The settings on record: Biochem. Biophys. Res. Commun. 237: 595-600 (1997); cited from earlier work.
A further assay deals with synapse formation. The settings on record: WO 95/05177; cited from earlier work.
For another assay, the system named is neurocytes. The settings on record: J. Neurochem. 67: 1821-1830, 1996; cited from earlier work.
The subject of assay [3] is ganglioside GM3, mouse B16 melanoma cells. The experiment in a line: Synthesized amount of ganglioside GM3 (HPTLC densitometry). It counts as cell-based. The settings on record: relative value, control regarded as 100, test compound 25 μM, 24 hours. As for the experimental part:
A liquid where the cells of mouse B16 melanoma were suspended was prepared with Dulbecco modified Eagle's medium containing 10% bovine fetal serum, inoculated into a culture flask (175 cm^2) in an amount of 0.8×10^7 cells/20 ml, and cultured in 5% CO2 incubator at 37° C. The treatment with a test compound (25 μM) was started through the exchange of three fourths of the medium 24 hours after the culture was started. Twenty-four hours after the treatment with the test compound was started, the culture mixture was treated with PBS containing 0.02% EDTA and PBS containing 0.25% trypsin successively to recover the cells.
Then, a mixed solvent of chloroform:methanol=2:1 (4 ml) was added to the cell pellet and, after the subjection to an ultrasonication for 30 minutes, the cell pellet solution was allowed to stand at room temperature for a night and the supernatant was recovered. Furthermore, a mixed solvent of chloroform:methanol=1:1 (4 ml) was added to the residual pellet after the recovery of the supernatant, and a similar operation was carried out. The resulting supernatant was combined with the first supernatant and the whole was evaporated to dryness under a nitrogen stream. To the total lipid fraction was added a 0.1 N methanolic sodium hydroxide solution (2.0 ml) and the mixture was allowed to stand at 40° C. for 2 hours. Thereafter, 1 N hydrochloric acid (0.2 ml) was added thereto and the mixture was allowed to stand for 1.5 hours.
Then, the mixture was washed with n-hexane (2 ml×2) and, after the lower layer thus washed was evaporated to dryness under a nitrogen stream, the residue was desalinated by gel filtration chromatography (Sephadex LH-20 (manufactured by Amersham Pharmacia Biotech), diameter of 10 mm, height of 120 mm) using chloroform:methanol=2:1 as the eluting solvent. […] After orcinol-sulfuric acid reagent had been sprayed on the plate, it was heated at 110° C. for 5 minutes and colored spot of ganglioside GM3 was quantitatively determined by means of densitometer (a measuring wavelength of 505 nm). […]

The next assay has as its system neurite. The conditions noted are these: literature; cited from earlier work.

For `CCCCCCCCCC(=O)N[C@@H](CN1CCOCC1)[C@@H](O)c1ccccc1` [L-PDMP, (1S,2S)-1-phenyl-2-decanoylamino-3-morpholino-1-propanol, reference compound], the “effect on MAPkinase” value in assay [1] is “activates MAPkinase for a long period of time”. The “effect on activity of enzyme for GQ1b synthesis” value in assay [2] is listed as “increases the activity of an enzyme for GQ1b synthesis”. The “effect on synapse formation” value in the assay with synapse formation was “effect of accelerating synapse formation”. The “effect on ganglioside biosynthesis of neurocytes” value in the assay with neurocytes is on record as “accelerate ganglioside biosynthesis of neurocytes”. Besides, the “Glycolipid content (Test Example 3)” value in assay [3] is 100.7. In addition, the “effect on neurite extension” value with neurite was “effect of accelerating neurite extension”.
